In patent US20230346893A1, “Methods and Compositions for Preventing or Minimizing Epithelial-Mesenchymal Transition” (Innovon Pharmaceuticals Inc., priority 2016, published 2023):

What was measured:
[1] = test system: HK-2 cells; assay: TGF-β-induced collagen 1 mRNA expression (EMT marker) in HK-2 cells, quantitative real-time PCR; type: cell-based, human
[2] = test system: HK-2 cells; assay: as above; type: cell-based, human; conditions: for Effect on expression of collagen in TGF-β-induced HK-2 cells (in words): alone or formulated with albumin, concentrations of Table 1; for Changes in collagen mRNA expression (relative to TGF-β-treated cells): fatty acid concentration 5.0 × 10^−4M, TGF-β 10 ng/ml
Protocol: HSA was dissolved in PBS to obtain a concentration of 6.6% (6.6 g/100 ml), and was filtered using a 0.2 μm filter. 75 μl of sodium octanoate or sodium decanoate 10 mM was mixed with 75 μl of HSA 6.6% (without vortex), and incubated 10 min at room temperature. 100 μL of this mixture was used in the assay of Example 4 in a final volume of 1 ml (dilution 1:10).
Analysis was undertaken to determine the effect of various compositions on TGF-β-induced collagen 1 expression, which is a marker of EMT, on immortalized human proximal tubule epithelial cells (HK-2 cells). HK-2 cells were treated with TGF-β (an inducer of EMT) at a concentration of 10 ng/ml. Expression of the EMT marker collagen 1 mRNA was determined by quantitative real-time PCR.
Real-Time PCR was using human TaqMan Gene Expression Assay normalized to human GAPDH endogenous control. Reference is TGF-β1 control (RQ=1). The * and ** mean a p value of 0.05 and 0.01 respectively, compared to reference. Tested concentration of the mixture of sodium octanoate and sodium decanoate is 500 μM. The number of experiments is 3 (n=3).

[3] = test system: human hepatocellular carcinoma cell line HepG2; assay: Collagen 1a1 mRNA expression (EMT marker) in TGF-β induced HepG2; type: cell-based; conditions: 500 μM; both in presence of albumin (With HSA) or absence of albumin (No HSA); n=3
Protocol: Real-Time PCR was using human TaqMan Gene Expression Assay normalized to human GAPDH endogenous control. Reference is TGF-β1 control (RQ=1). The *, ** and **** mean a p value of 0.05, 0.01 and 0.0001 respectively, compared to reference. Tested concentration of sodium octanoate and sodium decanoate is 500 μM. The number of experiments is 3 (n=3).

[4] = test system: PC-3 cells; assay: Scratch assay, migration/invasion of mitomycin-treated EGF-induced PC-3 cells; type: cell-based, human; conditions: EGF 50 ng/mL + Mitomycin C 10 μg/mL, 24 h; for EGF-induced PC-3 migration or invasion (FIG. 7, in words): with and without albumin
From the text: The present experiment exemplifies EMT analysis of cancer cells through invasion/migration of PC-3 cell in a “scratch assay”. This assay is based on the observation that, upon creation of a new artificial gap, so called ‘scratch’, on a confluent cell monolayer, the cells on the edge of the newly created gap will move toward the opening to close the scratch. EGF ([…]) was used to induce the migratory/invasion of PC-3 cells into the scratch. Briefly, culture-inserts are placed in a 24-well cell culture plate. PC-3 cells are seeded in culture-inserts and are incubated overnight at 37° C. in a CO2 incubator. Cells are then starved with serum-free medium for another 24 hours. The insert is removed, leaving a visible 500 μm cell-free gap. Cells were treated for 24 h with EGF at 50 ng/mL and Mitomycin C at 10 μg/mL (Mito+EGF) and with a pro-EMT agent, sodium octanoate (Mito+EGF+sodium octanoate) or an anti-EMT agent, sodium decanoate (Mito+EGF+sodium decanoate), with HSA (second row in FIG. 7) and without HSA (first row in FIG. 7). Pictures are taken at 1 h post-treatment as a confluence control for each group. After 24 h, cells are fixed with Crystal Violet staining and air dried before 24 h post treatment pictures are taken.

[5] = test system: human lung epithelial cell A549; assay: Collagen 1a1 mRNA expression (EMT marker) in TGF-β induced A549; type: cell-based; conditions: 500 μM; both in presence of albumin (With HSA) or absence of albumin (No HSA); n=3
Protocol: Real-Time PCR was using human TaqMan Gene Expression Assay normalized to human GAPDH endogenous control. Reference is TGF-β1 control (RQ=1). The *** and **** mean a p value of 0.001 and 0.0001 respectively, compared to reference. Tested concentration of sodium octanoate and sodium decanoate is 500 μM. The number of experiments is 3 (n=3).

[6] = test system: human microvascular endothelial cells (HMEC); assay: Collagen 1a1 mRNA expression (EndoMT/EMT marker) in TGF-β induced HMEC; type: cell-based; conditions: 500 μM; both in presence of albumin (With HSA) or absence of albumin (No HSA); n=3
Protocol: Endothelial to mesenchymal transition (EndoMT), which is included in the definition of the expression EMT as used in the present description, can be induced by transforming growth factor (TGF-β). […] Real-Time PCR was using human TaqMan Gene Expression Assay normalized to human GAPDH endogenous control. Reference is TGF-β1 control (RQ=1). The ** and *** mean a p value of 0.01 and 0.001 respectively, compared to reference. Tested concentration of sodium octanoate and sodium decanoate is 500 μM. The number of experiments is 3 (n=3).

[7] = fatty acid concentration 2.5 × 10^−4M, TGF-β 10 ng/ml

Structure (SMILES): CCCCCCCCCC(=O)O [Decanoic Acid]
- Changes in collagen mRNA expression (relative to TGF-β-treated cells) ([1]; fatty acid concentration 5.8 × 10^−7M, TGF-β 10 ng/ml): 105.4% of decrease

Structure (SMILES): CCCCCCCCC(=O)O [Nonanoic Acid]
- Effect on expression of collagen in TGF-β-induced HK-2 cells (in words) [2]: inhibited the expression of collagen
- Changes in collagen mRNA expression (relative to TGF-β-treated cells) ([1]; fatty acid concentration 6.3 × 10^−7M, TGF-β 10 ng/ml): 51.4% of decrease

Structure (SMILES): CCCCCCCCCC(=O)[O-].[Na+] [Sodium Decanoate]
- Mesenchymal transition induced by TGF-β (collagen 1a1 mRNA expression, FIG. 5, in words) [3]: reduced significantly the mesenchymal transition
- Effect on expression of collagen in TGF-β-induced HK-2 cells (in words) [2]: decrease (or inhibit) the expression of collagen
- Changes in collagen mRNA expression (relative to TGF-β-treated cells) [2]: 103.4% of decrease
- EGF-induced PC-3 migration or invasion (FIG. 7, in words) [4]: inhibition of the EGF-induced PC-3 migration or invasion
- Changes in collagen mRNA expression (relative to TGF-β-treated cells) [1, 7]: 66.6% of decrease
- Mesenchymal transition induced by TGF-β (collagen 1a1 mRNA expression, FIG. 6, in words) [5]: reduced significantly the mesenchymal transition
- Mesenchymal transition induced by TGF-β (collagen 1a1 mRNA expression, FIG. 4, in words) [6]: reduced significantly the mesenchymal transition

Structure (SMILES): CCCCCCCCCCCC(=O)[O-].[Na+] [Sodium Laurate]
- Effect on expression of collagen in TGF-β-induced HK-2 cells (in words) [2]: inhibited the expression of collagen
- Changes in collagen mRNA expression (relative to TGF-β-treated cells) ([1]; fatty acid concentration 1.0 × 10^−4M, TGF-β 10 ng/ml): 113.7% of decrease

Structure (SMILES): CCCCCCCC(=O)[O-].[Na+] [Sodium Octanoate, reference compound]
- Mesenchymal transition induced by TGF-β (collagen 1a1 mRNA expression, FIG. 5, in words) [3]: contrarily
- Effect on expression of collagen in TGF-β-induced HK-2 cells (in words) [2]: expression of collagen was increased (or stimulated)
- Changes in collagen mRNA expression (relative to TGF-β-treated cells) [2]: 24.1% of increase
- EGF-induced PC-3 migration (FIG. 7, in words) ([4]; combined with albumin): migration is increased
- EGF-induced PC-3 migration or invasion (FIG. 7, in words) [4]: does not inhibit the cell migration
- Changes in collagen mRNA expression (relative to TGF-β-treated cells) [1, 7]: 42.2% of increase
- Mesenchymal transition induced by TGF-β (collagen 1a1 mRNA expression, FIG. 6, in words) [5]: no significant results
- Mesenchymal transition induced by TGF-β (collagen 1a1 mRNA expression, FIG. 4, in words) [6]: contrarily

Structure (SMILES): CCCCCCCCCC(=O)OCC(COC(=O)CCCCCCCCC)OC(=O)CCCCCCCCC [Tricaprin]
- Changes in collagen mRNA expression (relative to TGF-β-treated cells) ([1]; triglyceride concentration 5%): 120.4% of decrease

Structure (SMILES): CCCCCCCCCCCC(=O)OCC(COC(=O)CCCCCCCCCCC)OC(=O)CCCCCCCCCCC [Trilaurin]
- Changes in collagen mRNA expression (relative to TGF-β-treated cells) ([1]; triglyceride concentration 5%): 84.6% of decrease

Structure (SMILES): CCCCCCCCCCCCCC(=O)OCC(COC(=O)CCCCCCCCCCCCC)OC(=O)CCCCCCCCCCCCC [Trimyristin]
- Changes in collagen mRNA expression (relative to TGF-β-treated cells) ([1]; triglyceride concentration 5%): 52.3% of decrease

Structure (SMILES): CCCCCCCCCCC(=O)O [Undecanoic Acid]
- Effect on expression of collagen in TGF-β-induced HK-2 cells (in words) [2]: inhibited the expression of collagen
- Changes in collagen mRNA expression (relative to TGF-β-treated cells) ([1]; fatty acid concentration 2.7 × 10^−7M, TGF-β 10 ng/ml): 120.95% of decrease
